Source: US4727064A, “Pharmaceutical preparations containing cyclodextrin derivatives” (priority 1985, dated 1988)
≈ marks a conversion by molar mass, not a printed value. Structures can show the parent of a compound that is named as a salt. Where two headings read alike, the source gives them in different places.

How the values were obtained:
[1] = Solubility of drugs in aqueous cyclodextrin solubilizer solution (saturation by stirring with excess drug, room temperature, about 24 hours; spectrophotometric); details: for solubility: water
Method: The solutions of solubilizer in water were saturated by stirring with excess of drug at room temperature for about 24 hours. The resulting suspensions were clarified either by filtration through a sintered glass filter or by centrifugation. Concentration of hormones in clarified solutions was measured spectrophotometrically. In these experiments drugs were solubilized with cyclodextrin derivatives with constant degrees of substitution and which are given in the footnote to Table 1.

[2] = Table 1, water, cited from earlier work
[3] = hydroxypropyl-β-cyclodextrin in water, Solubility in solubilizer solution, Table 1, hydroxypropyl-β-cyclodextrin in water, degree of substitution 6-7
[4] = hydroxypropyl-β-cyclodextrin in water, Solubility in solubilizer solution
[5] = data from K. Uekama, Pharmacology International, 61-65 (1985)
[6] = 50% aqueous carboxamido-β-cyclodextrin, Solubilities of steroids in 50% aqueous solutions of substituted cyclodextrins, Table 3, carboxamido-β-cyclodextrin
[7] = 50% aqueous carboxymethyl-β-cyclodextrin, Solubilities of steroids in 50% aqueous solutions of substituted cyclodextrins, Table 3, carboxymethyl-β-cyclodextrin
[8] = 50% aqueous diethylaminoethyl-β-cyclodextrin, Solubilities of steroids in 50% aqueous solutions of substituted cyclodextrins, Table 3, diethylaminoethyl-β-cyclodextrin
[9] = 50% aqueous hydroxypropyl-beta-cyclodextrin, Solubilities of steroids in 50% aqueous solutions of hydroxypropyl-β-cyclodextrin, Table 2, d.s. 4.7
[10] = 50% aqueous hydroxypropyl-beta-cyclodextrin, Solubilities of steroids in 50% aqueous solutions of hydroxypropyl-β-cyclodextrin, Table 2, d.s. 5.7
[11] = 50% aqueous hydroxypropyl-beta-cyclodextrin, Solubilities of steroids in 50% aqueous solutions of hydroxypropyl-β-cyclodextrin, Table 2, d.s. 7.0
[12] = 50% aqueous hydroxypropyl-beta-cyclodextrin, Solubilities of steroids in 50% aqueous solutions of hydroxypropyl-β-cyclodextrin, Table 2, d.s. 14
[13] = data from J. Brotherton, Sex Hormone Pharmacology (1976), p. 36
[14] = hydroxypropyl-β-cyclodextrin in water, 24 h

| Structure (SMILES) | solubility at 24 h [1, 3] | solubility [1] | solubility at 24 h [1, 4] | other results |
| --- | --- | --- | --- | --- |
| C[C@]12CCC(=O)C=C1CC[C@@H]1[C@@H]2CC[C@@]2(C)[C@H]1CC[C@]2(C)O [17-methyltestosterone] | 39 mg/mL (≈ 129 mM) | < 0.17 mg/mL | – | – |
| CC(=O)Nc1ccc(O)cc1 [acetamidophen] | 67 mg/mL (≈ 443 mM) | 11 mg/mL (≈ 72.8 mM) | – | – |
| Nc1nc2c(ncn2COCCO)c(=O)[nH]1 [acyclovir] | – | – | 2.5 mg/mL (≈ 11.1 mM) | Solubility in water [1]: insoluble |
| CN1CCc2cccc3c2[C@H]1Cc1ccc(O)c(O)c1-3 [apomorphine] | – | 20 mg/mL (≈ 74.8 mM) | 116 mg/mL (≈ 434 mM) | – |
| Cc1cc(C(C)(C)C)c(O)c(C(C)(C)C)c1 [butylated hydroxytoluene] | 3 mg/mL (≈ 13.6 mM) | – | – | Solubility in water ([1]; Table 1, water): insoluble; solubility at 24 h ([1]; hydroxypropyl-α-cyclodextrin in water, Solubility in solubilizer solution, Table 1, hydroxypropyl-α-cyclodextrin in water, degree of substitution 6-7): 0.3 mg/mL (≈ 1.36 mM); solubility at 24 h ([1]; hydroxypropyl-γ-cyclodextrin in water, Solubility in solubilizer solution, Table 1, hydroxypropyl-γ-cyclodextrin in water, degree of substitution 6-7): 0.2 mg/mL (≈ 0.908 mM) |
| NS(=O)(=O)c1cc(C2(O)NC(=O)c3ccccc32)ccc1Cl (stereo not shown) [chlorthalidone] | – | 0.12 mg/mL (≈ 0.354 mM) | 10.5 mg/mL (≈ 31 mM) | – |
| C=C1CC[C@H](O)C/C1=C/C=C1\CCC[C@]2(C)[C@@H]([C@H](C)CCCC(C)C)CC[C@@H]12 [cholecalciferol] | 10 mg/mL (≈ 26 mM) | < 0.23 mg/mL | – | – |
| Cl.Clc1cccc(Cl)c1NC1=NCCN1 [cloridine hydrochloride] | – | – | – | Solubility in solubilizer solution ([1]; Table 1, hydroxypropyl-β-cyclodextrin in water, degree of substitution 6-7, 1440 min): 83.0 mg/mL |
| C[C@@H]1C[C@H]2[C@@H]3CCC4=CC(=O)C=C[C@]4(C)[C@@]3(F)[C@@H](O)C[C@]2(C)[C@@]1(O)C(=O)CO [dexamethasone] | 24 mg/mL (≈ 61.2 mM) | 0.1 mg/mL (≈ 0.255 mM) | – | – |
| C[C@H]1O[C@@H](O[C@H]2[C@@H](O)C[C@H](O[C@H]3[C@@H](O)C[C@H](O[C@H]4CC[C@@]5(C)[C@H](CC[C@@H]6[C@@H]5C[C@@H](O)[C@]5(C)[C@@H](C7=CC(=O)OC7)CC[C@]65O)C4)O[C@@H]3C)O[C@@H]2C)C[C@H](O)[C@@H]1O [digoxin] | 45 mg/mL (≈ 57.6 mM) | – | – | Solubility in water [2, 5]: 0.07 mg/mL (≈ 0.0896 mM) |
| O=C1NC(=O)C(c2ccccc2)(c2ccccc2)N1 [diphenylhydantoin] | 1.7 mg/mL (≈ 6.74 mM) | – | – | Solubility in water [2, 5]: 0.03 mg/mL (≈ 0.119 mM) |
| C[C@]12CC[C@@H]3c4ccc(O)cc4CC[C@H]3[C@@H]1C[C@@H](O)[C@@H]2O [estriol] | 41 mg/mL (≈ 142 mM) | < 1.3 mg/mL | – | – |
| C#C[C@]1(O)CC[C@H]2[C@@H]3CCc4cc(OC)ccc4[C@H]3CC[C@@]21C [ethinylestradiol-3-methyl ether] | – | < 1.5 mg/mL | 27 mg/mL (≈ 87 mM) | – |
| C#C[C@]1(O)CC[C@H]2[C@@H]3CCC4=CC(=O)CC[C@]4(C)[C@H]3CC[C@@]21C [ethisterone] | 0.5 mg/mL (≈ 1.6 mM) | < 0.2 mg/mL | – | – |
| NS(=O)(=O)c1cc2c(cc1C(F)(F)F)NCNS2(=O)=O [hydroflumethiazide] | – | 0.3 mg/mL (≈ 0.906 mM) | 9.3 mg/mL (≈ 28.1 mM) | – |
| COc1ccc2c(c1)c(CC(=O)O)c(C)n2C(=O)c1ccc(Cl)cc1 [indomethacin] | 4.2 mg/mL (≈ 11.7 mM) | – | – | Solubility in water [2, 5]: 0.02 mg/mL (≈ 0.0559 mM) |
| CC(C)NNC(=O)c1ccncc1 [iproniazid phosphate] | – | 30 mg/mL | 95 mg/mL | – |
| O=[N+]([O-])OCC(CO[N+](=O)[O-])O[N+](=O)[O-] [nitroglycerin] | 10.4 mg/mL (≈ 45.8 mM) | 1.25 mg/mL (≈ 5.5 mM) | – | – |
| CC1OC(OC2CC(O)C3(CO)C4C(O)CC5(C)C(C6=CC(=O)OC6)CCC5(O)C4CCC3(O)C2)C(O)C(O)C1O (stereo not shown) [oubain] | 80 mg/mL (≈ 137 mM) | 13 mg/mL (≈ 22.2 mM) | – | – |
| CC(=O)[C@H]1CC[C@H]2[C@@H]3CCC4=CC(=O)CC[C@]4(C)[C@H]3CC[C@]12C [progesterone] | 34 mg/mL (≈ 108 mM) | – | – | solubility at 24 h [1, 6]: 38 mg/mL (≈ 121 mM); solubility at 24 h [1, 7]: 14 mg/mL (≈ 44.5 mM); solubility at 24 h [1, 8]: 18 mg/mL (≈ 57.2 mM); solubility at 24 h [1, 9]: 30 mg/mL (≈ 95.4 mM); solubility at 24 h [1, 10]: 44 mg/mL (≈ 140 mM); solubility at 24 h [1, 11]: 35 mg/mL (≈ 111 mM); solubility at 24 h [1, 12]: 23 mg/mL (≈ 73.1 mM); Solubility in water [2, 13]: 0.015 mg/mL (≈ 0.0477 mM) |
| CC1=C(/C=C/C(C)=C/C=C/C(C)=C/C=O)C(C)(C)CCC1 [retinal] | – | < 0.07 mg/mL | 2.6 mg/mL (≈ 9.14 mM) | – |
| CC1=C(/C=C/C(C)=C/C=C/C(C)=C/C(=O)O)C(C)(C)CCC1 [retinoic acid, all trans] | – | < 0.07 mg/mL | – | Solubility in solubilizer solution [1, 14]: 0.8 mg/mL (≈ 2.66 mM) |
| CC1=C(/C=C/C(C)=C/C=C/C(C)=C/C(=O)O)C(C)(C)CCC1 [retinoic acid, choline salt of all trans] | – | – | – | Solubility in solubilizer solution [1, 14]: 18.8 mg/mL |
| CC1=C(/C=C/C(C)=C/C=C/C(C)=C/C(=O)O)C(C)(C)CCC1 [retinoic acid, ethanolamine salt of all trans] | – | – | – | solubility at 24 h ([1]; 40% hydroxypropyl-β-cyclodextrin, 1% ethanolamine, Solubility in solubilizer solution): 28.4 mg/mL |
| CC1=C(/C=C/C(C)=C/C=C/C(C)=C/C(=O)O)C(C)(C)CCC1 [retinoic acid, sodium salt of all trans] | – | – | – | Solubility in solubilizer solution [1, 14]: 1.6 mg/mL |
| CC1=C(/C=C/C(C)=C/C=C/C(C)=C/CO)C(C)(C)CCC1 [retinol] | – | < 0.1 mg/mL | 5.5 mg/mL (≈ 19.2 mM) | – |
| CC(=O)S[C@@H]1CC2=CC(=O)CC[C@]2(C)[C@H]2CC[C@@]3(C)[C@@H](CC[C@@]34CCC(=O)O4)[C@H]12 [spironolactone] | – | – | 42 mg/mL (≈ 101 mM) | Solubility in water [2, 5]: 0.03 mg/mL (≈ 0.072 mM) |
| C[C@]12CC[C@H]3[C@@H](CCC4=CC(=O)CC[C@@]43C)[C@@H]1CC[C@@H]2O [testosterone] | 38 mg/mL (≈ 132 mM) | – | – | solubility at 24 h [1, 6]: 24 mg/mL (≈ 83.2 mM); solubility at 24 h [1, 7]: 24 mg/mL (≈ 83.2 mM); solubility at 24 h [1, 8]: 9 mg/mL (≈ 31.2 mM); solubility at 24 h [1, 9]: 56 mg/mL (≈ 194 mM); solubility at 24 h [1, 10]: 62 mg/mL (≈ 215 mM); solubility at 24 h [1, 11]: 40 mg/mL (≈ 139 mM); solubility at 24 h [1, 12]: 23 mg/mL (≈ 79.7 mM); Solubility in water [2, 13]: 0.026 mg/mL (≈ 0.0901 mM) |
| Cn1c(=O)c2[nH]cnc2n(C)c1=O [theophylline] | 11 mg/mL (≈ 61.1 mM) | 8.3 mg/mL (≈ 46.1 mM) | – | – |
